Measurements from US8481732B2 (Incyte Corporation, priority 2009, dated 2013).
pIC50: −log10 of the molar value.

Target: T1, histamine H4 receptor (Homo sapiens, UniProt Q9H3N8)
T1 construct: expressed in transfected cells; host or cells: HEK293SFM cells (membrane preparation)
Experiment: H4 Membrane Binding Assay (3H-Histamine displacement)
Conditions: membranes of recombinant HEK293SFM cells, 10 nM 3H-Histamine, 1.5 hr at room temperature
How it was run: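 Membranes from HEK293SFM cells expressing human H4 (also human H1–H3, mouse H4), prepared in ice-cold 50 mM Tris-HCl pH 7.5. [3H]-histamine displacement, nonspecific binding defined with 1000× unlabeled ligand. Bound radioactivity separated on PEI-treated GF/B filters and measured by liquid scintillation counting.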

| pIC50 | SMILES |
| --- | --- |
| 7.47 | CN1CCN(c2cc(-c3ccc4c(c3)CN(C(=O)Cc3ccc(C#N)cc3)CC4)nc(N)n2)CC1 [Example 107, 4-{2-[7-[2-Amino-6-(4-methylpiperazin-1-yl)pyrimidin-4-yl]-3,4-dihydroisoquinolin-2(1H)-yl]-2-oxoethyl}benzonitrile] |
| 7.48 | CN1CCN(c2cc(-c3ccc4c(c3)CN(C(=O)Cc3ccc(Cl)nc3)CC4)nc(N)n2)CC1 [Example 108, 4-{2-[(6-Chloropyridin-3-yl)acetyl]-1,2,3,4-tetrahydroisoquinolin-7-yl}-6-(4-methylpiperazin-1-yl)pyrimidin-2-amine] |
| 8.02 | CN1CCN(c2cc(-c3ccc4c(c3)CN(C(=O)CC3CCC3)CC4)nc(N)n2)CC1 [Example 109, 4-[2-(Cyclobutylacetyl)-1,2,3,4-tetrahydroisoquinolin-7-yl]-6-(4-methylpiperazin-1-yl)pyrimidin-2-amine] |
| 7.07 | CN1CCN(c2cc(-c3ccc4c(c3)CN(C(=O)CC3CCOCC3)CC4)nc(N)n2)CC1 [Example 110, 4-(4-Methylpiperazin-1-yl)-6-[2-(tetrahydro-2H-pyran-4-ylacetyl)-1,2,3,4-tetrahydroisoquinolin-7-yl]pyrimidin-2-amine] |
| 8.02 | CCC(C)CC(=O)N1CCc2ccc(-c3cc(N4CCN(C)CC4)nc(N)n3)cc2C1 (stereo not shown) [Example 111, 4-[2-(3-Methylpentanoyl)-1,2,3,4-tetrahydroisoquinolin-7-yl]-6-(4-methylpiperazin-1-yl)pyrimidin-2-amine] |
| 6.47 | CN1CCN(c2cc(-c3ccc4c(c3)CN(C(=O)Cn3cccn3)CC4)nc(N)n2)CC1 [Example 112, 4-(4-Methylpiperazin-1-yl)-6-[2-(1H-pyrazol-1-ylacetyl)-1,2,3,4-tetrahydroisoquinolin-7-yl]pyrimidin-2-amine] |
| 6.83 | COC(=O)NC(C)CC(=O)N1CCc2ccc(-c3cc(N4CCN(C)CC4)nc(N)n3)cc2C1 (stereo not shown) [Example 113, Methyl{3-[7-[2-amino-6-(4-methylpiperazin-1-yl)pyrimidin-4-yl]-3,4-dihydroisoquinolin-2(1H)-yl]-1-methyl-3-oxopropyl}carbamate] |
| 6.96 | COC(=O)NC(CC(=O)N1CCc2ccc(-c3cc(N4CCN(C)CC4)nc(N)n3)cc2C1)C1CCCCC1 (stereo not shown) [Example 114, Methyl{3-[7-[2-amino-6-(4-methylpiperazin-1-yl)pyrimidin-4-yl]-3,4-dihydroisoquinolin-2(1H)-yl]-1-cyclohexyl-3-oxopropyl}carbamate] |
| 7.48 | COC(=O)N1CCC(OC(=O)N2CCc3ccc(-c4cc(N5CCN(C)CC5)nc(N)n4)cc3C2)CC1 [Example 115, 1-(Methoxycarbonyl)piperidin-4-yl 7-[2-amino-6-(4-methylpiperazin-1-yl)pyrimidin-4-yl]-3,4-dihydroisoquinoline-2(1H)-carboxylate] |
| 7.42 | CCOC(=O)N1CCC(OC(=O)N2CCc3ccc(-c4cc(N5CCN(C)CC5)nc(N)n4)cc3C2)CC1 [Example 116, 1-(Ethoxycarbonyl)piperidin-4-yl 7-[2-amino-6-(4-methylpiperazin-1-yl)pyrimidin-4-yl]-3,4-dihydroisoquinoline-2(1H)-carboxylate] |

Further lines, the compound ahead of its results:

| SMILES | pIC50 |
| --- | --- |
| CN1CCN(c2cc(-c3ccc4c(c3)CN(C(=O)N[C@@H]3CCOC3)CC4)nc(N)n2)CC1 [Example 84, 7-[2-Amino-6-(4-methylpiperazin-1-yl)pyrimidin-4-yl]-N-[(3R)-tetrahydrofuran-3-yl]-3,4-dihydroisoquinoline-2(1H)-carboxamide] | 6.13 |
| CN1CCN(c2cc(-c3ccc4c(c3)CN(C(=O)N[C@@H]3c5ccccc5C[C@@H]3O)CC4)nc(N)n2)CC1 [Example 87, 7-[2-Amino-6-(4-methylpiperazin-1-yl)pyrimidin-4-yl]-N-[(1R,2S)-2-hydroxy-2,3-dihydro-1H-inden-1-yl]-3,4-dihydroisoquinoline-2(1H)-carboxamide] | 6.66 |
| CN1CCN(c2cc(-c3ccc4c(c3)CN(C(=O)Nc3nccs3)CC4)nc(N)n2)CC1 [Example 88, 7-[2-Amino-6-(4-methylpiperazin-1-yl)pyrimidin-4-yl]-N-1,3-thiazol-2-yl-3,4-dihydroisoquinoline-2(1H)-carboxamide] | 6.87 |
| CN1CCN(c2cc(-c3ccc4c(c3)CN(C(=O)OC3CCN(S(=O)(=O)C5CCCC5)CC3)CC4)nc(N)n2)CC1 [Example 89, 1-(Cyclopentylsulfonyl)piperidin-4-yl 7-[2-amino-6-(4-methylpiperazin-1-yl)pyrimidin-4-yl]-3,4-dihydroisoquinoline-2(1H)-carboxylate] | 7.11 |
| CN1CCN(c2cc(-c3ccc4c(c3)CN(C(=O)Nc3nc5ccccc5s3)CC4)nc(N)n2)CC1 [Example 90, 7-[2-Amino-6-(4-methylpiperazin-1-yl)pyrimidin-4-yl]-N-1,3-benzothiazol-2-yl-3,4-dihydroisoquinoline-2(1H)-carboxamide] | 6.84 |
| CN1CCN(c2cc(-c3ccc4c(c3)CN(C(=O)Nc3ccc(-c5ccccc5)cn3)CC4)nc(N)n2)CC1 [Example 91, 7-[2-Amino-6-(4-methylpiperazin-1-yl)pyrimidin-4-yl]-N-(5-phenylpyridin-2-yl)-3,4-dihydroisoquinoline-2(1H)-carboxamide] | 7.20 |
| CC(C)Oc1ccc(NC(=O)N2CCc3ccc(-c4cc(N5CCN(C)CC5)nc(N)n4)cc3C2)cc1 [Example 92, 7-[2-Amino-6-(4-methylpiperazin-1-yl)pyrimidin-4-yl]-N-(4-isopropoxyphenyl)-3,4-dihydroisoquinoline-2(1H)-carboxamide] | 7.30 |
| CN1CCN(c2cc(-c3ccc4c(c3)CN(C(=O)Nc3ccc(-n5cccn5)cc3)CC4)nc(N)n2)CC1 [Example 93, 7-[2-Amino-6-(4-methylpiperazin-1-yl)pyrimidin-4-yl]-N-[4-(1H-pyrazol-1-yl)phenyl]-3,4-dihydroisoquinoline-2(1H)-carboxamide] | 7.37 |
| COCC1(NC(=O)N2CCc3ccc(-c4cc(N5CCN(C)CC5)nc(N)n4)cc3C2)CCCC1 [Example 94, 7-[2-Amino-6-(4-methylpiperazin-1-yl)pyrimidin-4-yl]-N-[1-(methoxymethyl)cyclopentyl]-3,4-dihydroisoquinoline-2(1H)-carboxamide] | 6.83 |
| CN1CCN(c2cc(-c3ccc4c(c3)CN(C(=O)NC3CCCCC3)CC4)nc(N)n2)CC1 [Example 95, 7-[2-Amino-6-(4-methylpiperazin-1-yl)pyrimidin-4-yl]-N-cyclohexyl-3,4-dihydroisoquinoline-2(1H)-carboxamide] | 7.62 |
| CN1CCN(c2cc(-c3ccc4c(c3)CN(C(=O)Nc3ccc(Oc5ccccc5)cc3)CC4)nc(N)n2)CC1 [Example 96, 7-[2-Amino-6-(4-methylpiperazin-1-yl)pyrimidin-4-yl]-N-(4-phenoxyphenyl)-3,4-dihydroisoquinoline-2(1H)-carboxamide] | 7.28 |
| CC(C)[C@H](C)NC(=O)N1CCc2ccc(-c3cc(N4CCN(C)CC4)nc(N)n3)cc2C1 [Example 97, 7-[2-Amino-6-(4-methylpiperazin-1-yl)pyrimidin-4-yl]-N-[(1S)-1,2-dimethylpropyl]-3,4-dihydroisoquinoline-2(1H)-carboxamide] | 7.14 |
| CC(C)[C@@H](C)NC(=O)N1CCc2ccc(-c3cc(N4CCN(C)CC4)nc(N)n3)cc2C1 [Example 98, 7-[2-Amino-6-(4-methylpiperazin-1-yl)pyrimidin-4-yl]-N-[(1R)-1,2-dimethylpropyl]-3,4-dihydroisoquinoline-2(1H)-carboxamide] | 7.21 |
| CN1CCN(c2cc(-c3ccc4c(c3)CN(C(=O)Nc3ccccc3F)CC4)nc(N)n2)CC1 [Example 99, 7-[2-Amino-6-(4-methylpiperazin-1-yl)pyrimidin-4-yl]-N-(2-fluorophenyl)-3,4-dihydroisoquinoline-2(1H)-carboxamide] | 7.51 |
| CC(C)CC(=O)N1CCc2ccc(-c3cc(N4CCN(C)CC4)nc(N)n3)cc2C1 [Example 100, 4-[2-(3-Methylbutanoyl)-1,2,3,4-tetrahydroisoquinolin-7-yl]-6-(4-methylpiperazin-1-yl)pyrimidin-2-amine] | 7.35 |
| CN1CCN(c2cc(-c3ccc4c(c3)CN(C(=O)CCc3ccccc3)CC4)nc(N)n2)CC1 [Example 101, 4-(4-Methylpiperazin-1-yl)-6-[2-(3-phenylpropanoyl)-1,2,3,4-tetrahydroisoquinolin-7-yl]pyrimidin-2-amine] | 7.00 |
| CC(C(=O)N1CCc2ccc(-c3cc(N4CCN(C)CC4)nc(N)n3)cc2C1)C1CCCCC1 (stereo not shown) [Example 102, 4-[2-(2-Cyclohexylpropanoyl)-1,2,3,4-tetrahydroisoquinolin-7-yl]-6-(4-methylpiperazin-1-yl)pyrimidin-2-amine] | 7.08 |
| CN1CCN(c2cc(-c3ccc4c(c3)CN(C(=O)N3CCC(c5ccccc5)CC3)CC4)nc(N)n2)CC1 [Example 103, 4-(4-Methylpiperazin-1-yl)-6-{2-[(4-phenylpiperidin-1-yl)carbonyl]-1,2,3,4-tetrahydroisoquinolin-7-yl}pyrimidin-2-amine] | 7.08 |
| CN1CCN(c2cc(-c3ccc4c(c3)CN(C(=O)N3CCC(F)(F)CC3)CC4)nc(N)n2)CC1 [Example 104, 4-{2-[(4,4-Difluoropiperidin-1-yl)carbonyl]-1,2,3,4-tetrahydroisoquinolin-7-yl}-6-(4-methylpiperazin-1-yl)pyrimidin-2-amine] | 6.59 |
| CN1CCN(c2cc(-c3ccc4c(c3)CN(C(=O)C3CCCCC3)CC4)nc(N)n2)CC1 [Example 105, 4-[2-(Cyclohexylcarbonyl)-1,2,3,4-tetrahydroisoquinolin-7-yl]-6-(4-methylpiperazin-1-yl)pyrimidin-2-amine] | 7.09 |
| CN1CCN(c2cc(-c3ccc4c(c3)CN(C(=O)CC3CC3)CC4)nc(N)n2)CC1 [Example 106, 4-[2-(Cyclopropylacetyl)-1,2,3,4-tetrahydroisoquinolin-7-yl]-6-(4-methylpiperazin-1-yl)pyrimidin-2-amine] | 7.16 |
